{"source": "BindingDB's records for doi:10.1021/jm049651m", "about": "(Uppsala University, 2004)", "biological_target": "Type-2 angiotensin II receptor (Sus scrofa)", "assay": "Displacement of [125I]-Ang II from pig uterus myometrium angiotensin II type 2 (AT2) receptor", "note": "Bridge positions count the residues as written; N and C are the ends. Square brackets hold non-standard residues; d marks the D form. Peptide text beside a SMILES is read from it. hCys = N[C@@H](CCS)C(=O)O", "data": [{"smiles": "NC(N)=NCCC[C@H](NC(=O)[C@@H](N)CC(=O)O)C(=O)N[C@H]1CCSSCC[C@@H](C(=O)N[C@@H](Cc2c[nH]cn2)C(=O)N2CCC[C@H]2C(=O)N[C@@H](Cc2ccccc2)C(=O)O)NC(=O)[C@H](Cc2ccc(O)cc2)NC1=O", "note": "[c[Hcy3,5]Ang II] (H-DR[hCys]Y[hCys]HPF-OH; disulfide 3-5)", "values": [{"measurement": "Ki", "result": 2.1, "unit": "nM"}]}]}
